Laboratory results as given in patent publication US6908935B2, “Calcium receptor modulating agents” (Amgen Inc., priority 2002, dated 2005).
pEC50: −log10 of the molar value.

target: T1, human parathyroid cell Ca^2+ receptor (hPCaR) (Homo sapiens, UniProt P41180); test: [Ca2+]i measurement with fluo-3 in HEK 293 4.0-7 cells stably transfected with hPCaR; assay type: cell-based; conditions: fluo-3 fluorescence (485/530 nm), effect on [Ca^2+]i
T1 construct: expressed in transfected cells
T1 sequence (P41180 20-1078): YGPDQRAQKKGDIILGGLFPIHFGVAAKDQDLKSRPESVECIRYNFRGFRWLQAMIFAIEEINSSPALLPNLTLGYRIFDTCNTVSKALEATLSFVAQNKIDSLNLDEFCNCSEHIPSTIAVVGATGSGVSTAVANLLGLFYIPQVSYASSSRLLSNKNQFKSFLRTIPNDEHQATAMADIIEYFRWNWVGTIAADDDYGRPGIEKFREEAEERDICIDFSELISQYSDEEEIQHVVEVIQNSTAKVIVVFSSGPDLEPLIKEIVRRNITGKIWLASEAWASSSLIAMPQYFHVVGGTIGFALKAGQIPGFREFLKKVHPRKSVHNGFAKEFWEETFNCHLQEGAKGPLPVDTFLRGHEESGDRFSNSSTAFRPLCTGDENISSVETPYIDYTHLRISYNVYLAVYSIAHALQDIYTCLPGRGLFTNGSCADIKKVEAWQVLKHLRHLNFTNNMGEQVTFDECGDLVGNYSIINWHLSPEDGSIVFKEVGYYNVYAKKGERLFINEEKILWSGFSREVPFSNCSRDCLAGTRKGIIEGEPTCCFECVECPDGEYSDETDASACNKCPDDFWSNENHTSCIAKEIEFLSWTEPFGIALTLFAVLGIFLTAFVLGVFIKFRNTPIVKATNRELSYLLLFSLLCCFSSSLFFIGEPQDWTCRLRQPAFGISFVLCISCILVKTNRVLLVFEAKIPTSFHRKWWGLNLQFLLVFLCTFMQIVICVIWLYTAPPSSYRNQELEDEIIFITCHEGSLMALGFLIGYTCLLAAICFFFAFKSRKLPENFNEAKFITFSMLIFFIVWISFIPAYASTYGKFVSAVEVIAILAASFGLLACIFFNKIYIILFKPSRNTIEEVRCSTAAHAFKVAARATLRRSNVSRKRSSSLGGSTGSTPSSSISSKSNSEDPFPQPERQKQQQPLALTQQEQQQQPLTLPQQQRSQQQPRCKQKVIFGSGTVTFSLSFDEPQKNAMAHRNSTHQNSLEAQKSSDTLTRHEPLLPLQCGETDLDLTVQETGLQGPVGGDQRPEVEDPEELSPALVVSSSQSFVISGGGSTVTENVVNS
Method in brief: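 Cytosolic [Ca2+] was read as fluo-3 fluorescence (ex 485/em 530 nm) after compound addition to washed cells. Cells were hPCaR-transfected HEK 293 clone 7, dye-loaded 30 min at 37 °C with 2 μM fluo-3 acetoxymethyl ester in HEPES-buffered saline pH 7.45 containing 1 mM CaCl2 and 0.5% BSA.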

pEC50, ≥ 5.00:
CCN(CC)CCCOc1ccc(-c2cc(CN[C@H](C)c3cccc(OC)c3)ccc2OC)cn1 [N-((3-(6-((3-(diethylamino)propyl)oxy)-3-pyridinyl)-4-(methyloxy)phenyl)methyl)-N-((1R)-1-(3-(methyloxy)phenyl)ethyl)amine]
COc1cccc([C@@H](C)NCc2cccc(-c3cncc(C(N)=O)c3)c2)c1 [5-(3-((((1R)-1-(3-(methyloxy)phenyl)ethyl)amino)methyl)phenyl)-3-pyridinecarboxamide]
COc1ccc(CN[C@H](C)c2cccc3ccccc23)cc1-c1ccc(Cl)cc1 [(1R)-N-((4′-chloro-6-(methyloxy)-1,1′-biphenyl-3-yl)methyl)-1-(1-naphthalenyl)ethanamine]
COc1ccc(-c2cc(CN[C@H](C)c3ccc(C)cc3)ccc2F)cc1 [(1R)-N-((6-fluoro-4′-(methyloxy)-1,1′-biphenyl-3-yl)methyl)-1-(4-methylphenyl)ethanamine]
C[C@@H](NCc1ccc(Cl)c(-c2cccnc2)c1)c1cccc2ccccc12 [Example 435, (1R)-N-((4-chloro-3-(3-pyridinyl)phenyl)methyl)-1-(1-naphthalenyl)ethanamine]
COc1ccc(-c2cc(CN[C@H](C)c3ccccc3)ccc2F)cc1 [Example 465, (1R)-N-((6-fluoro-4′-(methyloxy)-1,1′-biphenyl-3-yl)methyl)-1-phenylethanamine]
COc1cccc([C@@H](C)NCc2ccc(Cl)c(-c3ccc(OC(F)(F)F)cc3)c2)c1 [(1R)-N-((6-chloro-4′-((trifluoromethyl)oxy)-1,1′-biphenyl-3-yl)methyl)-1-(3-(methyloxy)phenyl)ethanamine]
C[C@@H](NCc1ccc(Cl)c(-c2ccc(C(F)(F)F)cc2)c1)c1cccc2ccccc12 [(1R)-N-((6-chloro-4′-(trifluoromethyl)-1,1′-biphenyl-3-yl)methyl)-1-(1-naphthalenyl)ethanamine]
COc1ccc([C@@H](C)NCc2ccc(OC)c(-c3ccsc3)c2)cc1 [(1R)-1-(4-(methyloxy)phenyl)-N-((4-(methyloxy)-3-(3-thienyl)phenyl)methyl)ethanamine]
COc1ccc(CN[C@H](C)c2cccc3ccccc23)cc1-c1ccc(C(=O)N(C)C)cc1 [N,N-dimethyl-2′-(methyloxy)-5′-((((1R)-1-(1-naphthalenyl)ethyl)amino)methyl)-1,1′-biphenyl-4-carboxamide]
COc1ccc(CN[C@H](C)c2cccc3ccccc23)cc1C1CCNCC1 [(1R)-N-((4-(methyloxy)-3-(4-piperidinyl)phenyl)methyl)-1-(1-naphthalenyl)ethanamine]
COc1ccc(CN[C@H](C)c2ccccc2)cc1-c1ccc2nsnc2c1 [(1R)-N-((3-(2,1,3-benzothiadiazol-5-yl)-4-(methyloxy)phenyl)methyl)-1-phenylethanamine]
C[C@@H](NCc1cccc(-c2nccs2)c1)c1ccccc1 [Example 218, (1R)-1-phenyl-N-((3-(1,3-thiazol-2-yl)phenyl)methyl)ethanamine]
COc1ccc([C@@H](C)NCc2cccc(-c3cccc(OC)c3)c2)cc1 [(1R)-N-((3′-(methyloxy)-1,1′-biphenyl-3-yl)methyl)-1-(4-(methyloxy)phenyl)ethanamine]
CCOC(=O)N1CC=C(c2cc(CN[C@H](C)c3cccc4ccccc34)ccc2OC)CC1 [ethyl 4-(2-(methyloxy)-5-((((1R)-1-(1-naphthalenyl)ethyl)amino)methyl)phenyl)-3,6-dihydro-1(2H)-pyridinecarboxylate]
C[C@@H](NCc1cccc(-c2ccccn2)c1)c1ccc2ccccc2c1 [(1R)-1-(2-naphthalenyl)-N-((3-(2-pyridinyl)phenyl)methyl)ethanamine]
COc1cccc([C@@H](C)NCc2ccc(OC)c(-c3cccc(C#N)c3)c2)c1 [2′-(methyloxy)-5′-((((1R)-1-(3-(methyloxy)phenyl)ethyl)amino)methyl)-1,1′-biphenyl-3-carbonitrile]
COc1ccc(CN[C@H](C)c2cccc3ccccc23)cc1-c1ccc2oc(C)nc2c1 [(1R)-N-((3-(2-methyl-1,3-benzoxazol-5-yl)-4-(methyloxy)phenyl)methyl)-1-(1-naphthalenyl)ethanamine]
COc1ccc(CN[C@H](C)c2cccc3ccccc23)cc1-c1ccc2c(c1)CCO2 [(1R)-N-((3-(2,3-dihydro-1-benzofuran-5-yl)-4-(methyloxy)phenyl)methyl)-1-(1-naphthalenyl)ethanamine]
COc1cccc([C@@H](C)NCc2cccc(-c3ccc(C)nc3)c2)c1 [(1R)-1-(3-(methyloxy)phenyl)-N-((3-(6-methyl-3yridinyl)phenyl)methyl)ethanamine]
COc1ccc(CN[C@H](C)c2ccccc2)cc1-c1ccc(N)nc1 [5-(2-(methyloxy)-5-((((1R)-1-phenylethyl)amino)methyl)phenyl)-2-pyridinamine]
COc1ccc(CN[C@H](C)c2ccccc2)cc1-c1ccc(C(F)(F)F)cc1 [(1R)-N-((6-(methyloxy)-4′-(trifluoromethyl)-1,1′-biphenyl-3-yl)methyl)-1-phenylethanamine]
COc1ccc(CN[C@H](C)c2ccc(C)cc2)cc1-c1ccc(F)cc1 [(1R)-N-((4′-fluoro-6-(methyloxy)-1,1′-biphenyl-3-yl)methyl)-1-(4-methylphenyl)ethanamine]
COc1ccc(CN[C@H](C)c2ccccc2)cc1-c1ccc2c(c1)ncn2C [(1R)-N-((3-(1-methyl-1H-benzimidazol-5-yl)-4-(methyloxy)phenyl)methyl)-1-phenylethanamine]
COc1ccc(CN[C@H](C)c2ccccc2)cc1-c1cccc(OC(F)(F)F)c1 [(1R)-N-((6-(methyloxy)-3′-((trifluoromethyl)oxy)-1,1′-biphenyl-3-yl)methyl)-1-phenylethanamine]
COc1ccc(CN[C@H](C)c2ccccc2)cc1-c1ccc2nccnc2c1 [(1R)-N-((4-(methyloxy)-3-(6-quinoxalinyl)phenyl)methyl)-1-phenylethanamine]
COc1cccc([C@@H](C)NCc2cccc(-c3cncnc3)c2)c1 [(1R)-1-(3-(methyloxy)phenyl)-N-((3-(5-pyrimidinyl)phenyl)methyl)ethanamine]
COc1ccc([C@@H](C)NCc2ccc(F)c(-c3ccc(F)cc3)c2)cc1 [(1R)-N-((4′,6-difluoro-1,1′-biphenyl-3-yl)methyl)-1-(4-(methyloxy)phenyl)ethanamine]
COc1ccc(-c2cc(CN[C@H](C)c3ccccc3)ccc2NS(C)(=O)=O)cc1 [N-(4′-(methyloxy)-5-((((1R)-1-phenylethyl)amino)methyl)-1,1′-biphenyl-2-yl)methanesulfonamide]
COc1ccc(CN[C@H](C)c2cccc3ccccc23)cc1-c1cccc(C#N)c1 [2′-(methyloxy)-5′-((((1R)-1-(1-naphthalenyl)ethyl)amino)methyl)-1,1′-biphenyl-3-carbonitrile]
COc1ccc(CN[C@H](C)c2ccccc2)cc1-c1cccs1 [(1R)-N-((4-(methyloxy)-3-(2-thienyl)phenyl)methyl)-1-phenylethanamine]
COc1ccc(CN[C@H](C)c2ccccc2)cc1-c1nnc(C(F)(F)F)o1 [(1R)-N-((4-(methyloxy)-3-(5-(trifluoromethyl)-1,3,4-oxadiazol-2-yl)phenyl)methyl)-1-phenylethanamine]
COc1ccc(CN[C@H](C)c2cccc3ccccc23)cc1-c1cncc(C(N)=O)c1 [5-(2-(methyloxy)-5-((((1R)-1-(1-naphthalenyl)ethyl)amino)methyl)phenyl)-3-pyridinecarboxamide]
COc1ccc(CN[C@H](C)c2cccc(C#N)c2)cc1-c1ccc(C(F)(F)F)cc1 (stereo in doubt) [3-(1-(((6-(methyloxy)-4′-(trifluoromethyl)-1,1′-biphenyl-3-yl)methyl)amino)ethyl)benzonitrile]
COc1ccc(-c2cc(CN[C@H](C)c3cccc4ccccc34)ccc2OC)cn1 [(1R)-N-((4-(methyloxy)-3-(6-(methyloxy)-3-pyridinyl)phenyl)methyl)-1-(1-naphthalenyl)ethanamine]
